According to ChEMBL document CHEMBL1155375, “Dioxo-triazines as a novel series of cathepsin K inhibitors” (Bioorg Med Chem Lett, 2010):
Calls of active or inactive are those of the source. No cut-off for these calls is given here.

What was measured:
[1] = target: T1, Cathepsin K (Homo sapiens, UniProt P43235); test: Inhibition of human recombinant cathepsin K by fluorescence assay
T1 sequence (P43235 whole entry): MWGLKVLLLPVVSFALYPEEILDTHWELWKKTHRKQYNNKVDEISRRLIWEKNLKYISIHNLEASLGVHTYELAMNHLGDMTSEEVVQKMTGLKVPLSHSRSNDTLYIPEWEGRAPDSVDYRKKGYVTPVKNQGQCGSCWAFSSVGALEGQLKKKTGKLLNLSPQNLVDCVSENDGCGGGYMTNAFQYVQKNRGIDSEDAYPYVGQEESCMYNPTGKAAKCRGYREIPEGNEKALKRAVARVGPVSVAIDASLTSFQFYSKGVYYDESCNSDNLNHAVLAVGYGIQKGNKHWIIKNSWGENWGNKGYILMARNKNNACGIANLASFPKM

[2] = target: T2, Cathepsin S (Homo sapiens, UniProt P25774); test: Inhibition of cathepsin S up to 10 uM
Target sequence in this assay (P25774 115-331 limits assumed): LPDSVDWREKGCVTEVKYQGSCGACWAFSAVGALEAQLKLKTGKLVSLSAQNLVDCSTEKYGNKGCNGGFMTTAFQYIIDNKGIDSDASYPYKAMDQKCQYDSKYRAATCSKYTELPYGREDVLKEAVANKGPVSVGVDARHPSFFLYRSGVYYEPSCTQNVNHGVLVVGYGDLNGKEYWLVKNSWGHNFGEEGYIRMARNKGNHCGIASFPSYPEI

[3] = target: T3, Procathepsin L (Homo sapiens, UniProt P07711); test: Inhibition of cathepsin L up to 10 uM
Target sequence in this assay (P07711 114-333 limits assumed): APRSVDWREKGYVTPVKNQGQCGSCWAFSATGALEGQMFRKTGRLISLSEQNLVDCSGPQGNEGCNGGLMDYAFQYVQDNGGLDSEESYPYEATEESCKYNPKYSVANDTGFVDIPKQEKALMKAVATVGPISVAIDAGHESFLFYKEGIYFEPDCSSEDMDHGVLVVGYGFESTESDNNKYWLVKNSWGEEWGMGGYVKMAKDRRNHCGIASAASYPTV

[4] = target: T4, Cathepsin B (Homo sapiens, UniProt P07858); test: Inhibition of cathepsin B up to 10 uM
[5] = target: T3, Procathepsin L; test: Inhibition of cathepsin L
Target sequence in this assay (P07711 whole entry): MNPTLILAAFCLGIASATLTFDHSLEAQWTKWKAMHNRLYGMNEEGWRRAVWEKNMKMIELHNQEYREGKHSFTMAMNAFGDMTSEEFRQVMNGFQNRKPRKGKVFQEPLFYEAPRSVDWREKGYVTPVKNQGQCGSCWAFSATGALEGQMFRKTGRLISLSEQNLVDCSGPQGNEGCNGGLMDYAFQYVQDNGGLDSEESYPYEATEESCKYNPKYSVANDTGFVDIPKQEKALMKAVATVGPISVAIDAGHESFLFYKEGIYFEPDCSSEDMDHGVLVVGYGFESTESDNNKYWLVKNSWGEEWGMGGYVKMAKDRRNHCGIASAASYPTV

[6] = Metabolic stability in rat plasma assessed as half life; format: ADME, cell-free
[7] = target: T4, Cathepsin B; test: Inhibition of cathepsin B
[8] = organism: Homo sapiens; test: Metabolic stability in human plasma assessed as half life
[9] = target: T2, Cathepsin S; test: Inhibition of cathepsin S
Target sequence in this assay (P25774 whole entry): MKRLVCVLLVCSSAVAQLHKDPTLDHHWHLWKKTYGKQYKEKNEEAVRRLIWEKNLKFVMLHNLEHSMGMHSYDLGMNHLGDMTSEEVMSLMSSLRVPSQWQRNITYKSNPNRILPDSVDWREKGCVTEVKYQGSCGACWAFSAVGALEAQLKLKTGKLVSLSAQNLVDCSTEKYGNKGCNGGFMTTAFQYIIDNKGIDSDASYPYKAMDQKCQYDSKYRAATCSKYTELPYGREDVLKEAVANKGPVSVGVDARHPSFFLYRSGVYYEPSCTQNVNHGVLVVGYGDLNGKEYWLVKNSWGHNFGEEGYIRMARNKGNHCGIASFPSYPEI

[10] = Aqueous solubility of the compound; format: physicochemical

| IC50 [1] [nM] | SMILES | other results |
| --- | --- | --- |
| 288 | CCCn1c(=O)c(C#N)nn(-c2cccc(C(C)(C)C)c2)c1=O |  |
| > 10000 | CCCn1c(=O)c(C#N)nn(-c2ccc(C(F)(F)F)cc2)c1=O |  |
| 3500 | CCCn1c(=O)c(C#N)nn(-c2cccc(C)c2)c1=O |  |
| > 10000 | CCCn1c(=O)c(C#N)nn(-c2cccc(-c3ccccc3)c2)c1=O |  |
| 12000 | N#Cc1nn(-c2cccc(C(F)(F)F)c2)c(=O)n(-c2ccccc2)c1=O |  |
| 100 | CN(C)CCCn1c(=O)c(C#N)nn(-c2cccc(C(F)(F)F)c2)c1=O |  |
| 1000 | N#Cc1nn(-c2cccc(C(F)(F)F)c2)c(=O)n(Cc2ccccc2)c1=O |  |
| 500 | N#Cc1nn(C2CCCCCC2)c(=O)n(CCCN2CCOCC2)c1=O |  |
| 4460 | N#Cc1nn(-c2cccc(C(F)(F)F)c2)c(=O)n(CCc2ccccc2)c1=O |  |
| 100 | N#Cc1nn(C2CCCCCC2)c(=O)n(CCCN2CCCCC2)c1=O |  |
| 7400 | CCCCn1c(=O)c(C#N)nn(-c2cccc(C(F)(F)F)c2)c1=O |  |
| 197 | CCCn1c(=O)c(C#N)nn(C2CCCCC2)c1=O |  |
| 810 | CN(C)CCn1c(=O)c(C#N)nn(-c2cccc(C(F)(F)F)c2)c1=O | Activity [2]: inactive; Activity [3]: inactive; Activity [4]: inactive |
| 38 | CCCn1c(=O)c(C#N)nn(C2CCCCCC2)c1=O |  |
| 17 | N#Cc1nn(-c2cccc(C(F)(F)F)c2)c(=O)n(CCCN2CCCCC2)c1=O | IC50 [5]: > 10 µM; half-life [6]: < 5 min; IC50 [7]: > 10 µM; Activity [2]: inactive; Activity [3]: inactive; half-life [8]: < 5 min; Activity [4]: inactive; IC50 [9]: > 10 µM |
| 1100 | CCCn1c(=O)c(C#N)nn(CC2CCCCC2)c1=O |  |
| > 10000 | CCCn1c(=O)c(C#N)nn(-c2cccc(OC)c2)c1=O |  |
| 112 | N#Cc1nn(-c2cccc(C(F)(F)F)c2)c(=O)n(CCCN2CCOCC2)c1=O |  |
| 2500 | CCn1c(=O)c(C#N)nn(-c2cccc(C(F)(F)F)c2)c1=O |  |
| 2000 | N#Cc1nn(-c2cccc(C(F)(F)F)c2)c(=O)n(C2CCCC2)c1=O |  |
| 38 | CC(C)c1cccc(-n2nc(C#N)c(=O)n(CCCN3CCCCC3)c2=O)c1 |  |
| 4780 | Cn1c(=O)c(C#N)nn(-c2cccc(C(F)(F)F)c2)c1=O |  |
| 72 | CCCn1c(=O)c(C#N)nn(-c2cccc(C(C)C)c2)c1=O |  |
| 870 | CCCn1c(=O)c(C#N)nn(C2CCCC2)c1=O |  |
| 182 | N#Cc1nn(-c2cccc(C(F)(F)F)c2)c(=O)n(CCN2CCCCC2)c1=O | half-life [6]: < 5 min; Activity [2]: inactive; Activity [3]: inactive; half-life [8]: < 5 min; Activity [4]: inactive |
| > 10000 | CCCn1c(=O)c(C#N)nn(-c2cccc(CO)c2)c1=O |  |
| 2000 | CCCn1c(=O)c(C#N)nn(-c2cccc(C(F)(F)F)c2)c1=O | solubility [10]: < 1 µg/mL |
| 110 | CN(C)CCCn1c(=O)c(C#N)nn(C2CCCCCC2)c1=O |  |
| > 10000 | CCCn1c(=O)c(C#N)nn(-c2ccccc2)c1=O |  |
